Data: US20230407243A1, “GENETIC PLATFORM TO INVESTIGATE THE FUNCTIONS OF BACTERIAL DRUG EFFLUX PUMPS” (priority 2022, published 2023)
Read-outs that look alike come from different tables or passages of the source.

Experiments:
Assay type in all cases: cell-based, Escherichia coli
ΔtolC-Pore = system: ΔtolC-Pore
Summary of the method: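 MHB II, CLSI microdilution checkerboard, colony-resuspension inoculum, solvent controls per plate. MIC = no growth at OD600. FICI summed from FIC of PAβN/NMP and antibiotic; <0.5 synergistic, >2.0 antagonistic.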

[1] = system: EKO-35 strains producing different efflux pumps (EKO-35 araC::X); assay: Checkerboard synergy (FICI) of PAβN or NMP with antibiotics
Method: (§1) Synergy measurement using checkerboard analysis was performed in 96-well microtiter plates using the microdilution broth method, according to CLSI guidelines (Patel J. B., 2015). The cell inocula were prepared using the colony resuspension method. The minimum inhibitory concentrations (MICs) were defined as the lowest concentration that provided no growth, as determined by measurement of the OD600nm using a Synergy H1 microplate reader (BioTek). Susceptibility testing was performed in MHB II with a final volume of 100 μL. PAI3N (Bachem Americas) was solubilized in MHB II. […] Solvent controls were included in each plate.
(§2) The Fractional Inhibitory Concentration Index (FICI) was used to assess the synergy of PAI3N in combination with different antibiotics. The FICI represents the ΣFIC of each drug. The FICI for each drug was calculated using the following formula: FICI=FICA+FICB=(CA/MICA)+(CB/MICB). Where MICA and MICB are the MICs of drugs A (PAI3N/NMP) and B (antibiotic) alone, and CA and CB are the MICs of the drugs in combination. The effects of PAβN or NMP in combination with antibiotics were classified as: synergistic (FICI<0.5), additive (FICI>0.5-1.0), indifferent (FICI>1.0-2.0), and antagonistic (FICI>2.0). Fold increases in resistance provided by efflux pumps were calculated by dividing the MIC values of strains expressing efflux pumps by the MIC value of EKO-35.

[2] = system: EKO-35-Pore acrBD408A (functionally inactive AcrB variant); assay: Checkerboard synergy (FICI), porinated strain
Method: as §1, §2

wild-type K-12-Pore = assay: Checkerboard synergy (FICI), porinated strain
Method: as §1, §2

[3] = system: EKO-35 porinated strain expressing acrB; assay: Checkerboard synergy (FICI), porinated strain; settings: for potentiation of the labelled compound by NMP: porinated strain producing AcrB
Method: as §1, §2

EKO-35-Pore = assay: Checkerboard synergy (FICI), porinated strain
Method: as §1, §2

[4] = strain ΔtolC Pore, NMP + antibiotic
[5] = strain ΔtolC Pore, antibiotic alone
[6] = strain ΔtolC Pore, antibiotic in combination with NMP
[7] = ΔtolC Pore, antibiotic alone (PAβN checkerboard)
[8] = ΔtolC Pore, antibiotic in combination with PAβN
[9] = EKO-35 acrB, antibiotic in combination with PAβN
[10] = EKO-35 mdtEF, PAβN + antibiotic
[11] = strain EKO-35 acrB, NMP + antibiotic
[12] = strain EKO-35 acrB, antibiotic in combination with NMP
[13] = strain EKO-35 acrD, NMP + antibiotic
[14] = strain EKO-35 acrEF, NMP + antibiotic
[15] = EKO-35 acrBD408A Pore, NMP + antibiotic
[16] = EKO-35 acrBD408A Pore, PAβN + antibiotic
[17] = EKO-35 acrBD408A Pore, antibiotic alone (PAβN checkerboard)
[18] = EKO-35 acrBD408A Pore, antibiotic in combination with PAβN
[19] = strain EKO-35 acrBD408A Pore, NMP + antibiotic
[20] = strain EKO-35 acrBD408A Pore, antibiotic alone
[21] = strain EKO-35 acrBD408A Pore, antibiotic in combination with NMP
[22] = K-12 Pore, antibiotic alone (PAβN checkerboard)
[23] = K-12 Pore, antibiotic in combination with PAβN
[24] = strain K-12 Pore, NMP + antibiotic
[25] = strain K-12 Pore, antibiotic alone
[26] = EKO-35 acrB Pore, NMP + antibiotic
[27] = EKO-35 acrB Pore, PAβN + antibiotic
[28] = EKO-35 acrB Pore, antibiotic alone (PAβN checkerboard)
[29] = EKO-35 acrB Pore, antibiotic in combination with PAβN
[30] = strain EKO-35 acrB Pore, NMP + antibiotic
[31] = strain EKO-35 acrB Pore, antibiotic alone
[32] = EKO-35 Pore, antibiotic alone (PAβN checkerboard)
[33] = EKO-35 Pore, antibiotic in combination with PAβN
[34] = strain EKO-35 Pore, NMP + antibiotic
[35] = strain EKO-35 Pore, antibiotic alone
[36] = strain EKO-35 Pore, antibiotic in combination with NMP

Compound: CC(=O)O[C@H]1C[C@@]2(C)[C@@H](C[C@@H](O)[C@H]3[C@@]4(C)CC[C@@H](O)[C@@H](C)[C@@H]4CC[C@@]32C)/C1=C(\CCC=C(C)C)C(=O)O [fusidic acid]
- Effect (ΔtolC-Pore; [4]): Additive (additive (FICI >0.5-1.0))
- FICI (ΔtolC-Pore; [4]): 0.750
- MICb Alone (ΔtolC-Pore; [5]): 2 µg/mL
- MICb Combined (ΔtolC-Pore; [6]): 1 µg/mL
- Effect (ΔtolC-Pore; ΔtolC Pore, NMP + antibiotic): Additive
- FICI (ΔtolC-Pore; ΔtolC Pore, NMP + antibiotic): 0.750
- Effect (ΔtolC-Pore; ΔtolC Pore, PAβN + antibiotic): Synergistic
- FICI (ΔtolC-Pore; ΔtolC Pore, PAβN + antibiotic): 0.375
- MICb Alone (ΔtolC-Pore; [7]): 2 µg/mL
- MICb Combined (ΔtolC-Pore; [8]): 0.25 µg/mL
- Effect ([1]; EKO-35 acrB, NMP + antibiotic): Synergistic
- FICI ([1]; EKO-35 acrB, NMP + antibiotic): 0.500
- Effect ([1]; EKO-35 acrB, PAβN + antibiotic): Synergistic
- FICI ([1]; EKO-35 acrB, PAβN + antibiotic): 0.129
- MICb Combined [1, 9]: 4 µg/mL
- Effect ([1]; EKO-35 acrD, NMP + antibiotic): Additive
- FICI ([1]; EKO-35 acrD, NMP + antibiotic): 0.563
- Effect ([1]; EKO-35 acrD, PAβN + antibiotic): Synergistic
- FICI ([1]; EKO-35 acrD, PAβN + antibiotic): 0.141
- MICb Alone ([1]; EKO-35 acrD, antibiotic alone (PAβN checkerboard)): 256 µg/mL
- MICb Combined ([1]; EKO-35 acrD, antibiotic in combination with PAβN): 4 µg/mL
- Effect ([1]; EKO-35 acrEF, NMP + antibiotic): Additive
- FICI ([1]; EKO-35 acrEF, NMP + antibiotic): 0.750
- Effect ([1]; EKO-35 acrEF, PAβN + antibiotic): Synergistic
- MICb Alone ([1]; EKO-35 acrEF, antibiotic alone (PAβN checkerboard)): 32 µg/mL
- MICb Combined ([1]; EKO-35 acrEF, antibiotic in combination with PAβN): 8 µg/mL
- Effect ([1]; EKO-35 mdtEF, NMP + antibiotic): Synergistic
- Effect [1, 10]: Synergistic
- FICI [1, 10]: 0.250
- MICb Alone ([1]; EKO-35 mdtEF, antibiotic alone (PAβN checkerboard)): 64 µg/mL
- MICb Combined ([1]; EKO-35 mdtEF, antibiotic in combination with PAβN): 8 µg/mL
- Effect [1, 11]: Synergistic (Synergy (FICI ≤0.5))
- FICI [1, 11]: 0.500
- MICb Combined [1, 12]: 256 µg/mL
- Effect [1, 13]: Additive (additive (FICI >0.5-1.0))
- FICI [1, 13]: 0.563
- MICb Alone ([1]; strain EKO-35 acrD, antibiotic alone): 256 µg/mL
- MICb Combined ([1]; strain EKO-35 acrD, antibiotic in combination with NMP): 16 µg/mL
- Effect [1, 14]: Additive (additive (FICI >0.5-1.0))
- FICI [1, 14]: 0.750
- MICb Alone ([1]; strain EKO-35 acrEF, antibiotic alone): 32 µg/mL
- MICb Combined ([1]; strain EKO-35 acrEF, antibiotic in combination with NMP): 16 µg/mL
- Effect ([1]; strain EKO-35 mdtEF, NMP + antibiotic): Synergistic (Synergy (FICI ≤0.5))
- MICb Alone ([1]; strain EKO-35 mdtEF, antibiotic alone): 64 µg/mL
- MICb Combined ([1]; strain EKO-35 mdtEF, antibiotic in combination with NMP): 8 µg/mL
- Effect [2, 15]: Additive
- FICI [2, 15]: 0.750
- Effect [2, 16]: Synergistic
- FICI [2, 16]: 0.255
- MICb Alone [2, 17]: 1 µg/mL
- MICb Combined [2, 18]: 0.13 µg/mL
- Effect [2, 19]: Additive (additive (FICI >0.5-1.0))
- FICI [2, 19]: 0.750
- MICb Alone [2, 20]: 0.5 µg/mL
- MICb Combined [2, 21]: 0.25 µg/mL
- Effect (wild-type K-12-Pore; K-12 Pore, NMP + antibiotic): Synergistic
- FICI (wild-type K-12-Pore; K-12 Pore, NMP + antibiotic): 0.500
- Effect (wild-type K-12-Pore; K-12 Pore, PAβN + antibiotic): Synergistic
- FICI (wild-type K-12-Pore; K-12 Pore, PAβN + antibiotic): 0.188
- MICb Alone (wild-type K-12-Pore; [22]): 512 µg/mL
- MICb Combined (wild-type K-12-Pore; [23]): 32 µg/mL
- Effect (wild-type K-12-Pore; [24]): Synergistic (Synergy (FICI ≤0.5))
- FICI (wild-type K-12-Pore; [24]): 0.500
- MICb Alone (wild-type K-12-Pore; [25]): 512 µg/mL
- Effect [3, 26]: Synergistic
- FICI [3, 26]: 0.500
- Effect [3, 27]: Synergistic
- FICI [3, 27]: 0.129
- MICb Alone [3, 28]: 512 µg/mL
- MICb Combined [3, 29]: 2 µg/mL
- potentiation of the labelled compound by NMP [3]: enhancing the activity
- Effect [3, 30]: Synergistic (Synergy (FICI ≤0.5))
- FICI [3, 30]: 0.500
- MICb Alone [3, 31]: 512 µg/mL
- Effect (EKO-35-Pore; EKO-35 Pore, NMP + antibiotic): Additive
- FICI (EKO-35-Pore; EKO-35 Pore, NMP + antibiotic): 0.620
- Effect (EKO-35-Pore; EKO-35 Pore, PAβN + antibiotic): Synergistic
- FICI (EKO-35-Pore; EKO-35 Pore, PAβN + antibiotic): 0.310
- MICb Alone (EKO-35-Pore; [32]): 1 µg/mL
- MICb Combined (EKO-35-Pore; [33]): 0.06 µg/mL
- interaction of PAβN in combination with the labelled antibiotic (FICI) (EKO-35-Pore; porinated efflux-deficient strains): synergy was maintained
- Effect (EKO-35-Pore; [34]): Additive (additive (FICI >0.5-1.0))
- FICI (EKO-35-Pore; [34]): 0.620
- MICb Alone (EKO-35-Pore; [35]): 0.5 µg/mL
- MICb Combined (EKO-35-Pore; [36]): 0.06 µg/mL

Compound: CC(=O)NC[C@H]1CN(c2ccc(N3CCOCC3)c(F)c2)C(=O)O1 [linezolid]
- Effect (ΔtolC-Pore; [4]): — (indifferent (FICI >1.0))
- FICI (ΔtolC-Pore; [4]): 1.000
- MICb Alone (ΔtolC-Pore; [5]): 8 µg/mL
- MICb Combined (ΔtolC-Pore; [6]): 4 µg/mL
- FICI (ΔtolC-Pore; ΔtolC Pore, NMP + antibiotic): 1.000
- Effect (ΔtolC-Pore; ΔtolC Pore, PAβN + antibiotic): Additive
- FICI (ΔtolC-Pore; ΔtolC Pore, PAβN + antibiotic): 0.563
- MICb Alone (ΔtolC-Pore; [7]): 8 µg/mL
- MICb Combined (ΔtolC-Pore; [8]): 0.5 µg/mL
- Effect ([1]; EKO-35 acrB, NMP + antibiotic): Synergistic
- FICI ([1]; EKO-35 acrB, NMP + antibiotic): 0.281
- Effect ([1]; EKO-35 acrB, PAβN + antibiotic): Synergistic
- MICb Combined [1, 9]: 16 µg/mL
- Effect [1, 11]: Synergistic (Synergy (FICI ≤0.5))
- FICI [1, 11]: 0.281
- MICb Combined [1, 12]: 8 µg/mL
- FICI [2, 15]: 2.000
- FICI [2, 16]: 1.000
- MICb Alone [2, 17]: 8 µg/mL
- MICb Combined [2, 18]: 4 µg/mL
- Effect [2, 19]: — (indifferent (FICI >1.0))
- FICI [2, 19]: 2.000
- MICb Alone [2, 20]: 8 µg/mL
- MICb Combined [2, 21]: 8 µg/mL
- Effect (wild-type K-12-Pore; K-12 Pore, NMP + antibiotic): Synergistic
- Effect (wild-type K-12-Pore; K-12 Pore, PAβN + antibiotic): Synergistic
- FICI (wild-type K-12-Pore; K-12 Pore, PAβN + antibiotic): 0.250
- MICb Alone (wild-type K-12-Pore; [22]): 128 µg/mL
- MICb Combined (wild-type K-12-Pore; [23]): 16 µg/mL
- Effect (wild-type K-12-Pore; [24]): Synergistic (Synergy (FICI ≤0.5))
- MICb Alone (wild-type K-12-Pore; [25]): 128 µg/mL
- MICb Combined (wild-type K-12-Pore; strain K-12 Pore, antibiotic in combination with NMP): 32 µg/mL
- Effect [3, 26]: Synergistic
- FICI [3, 26]: 0.250
- Effect [3, 27]: Synergistic
- MICb Alone [3, 28]: 128 µg/mL
- MICb Combined [3, 29]: 8 µg/mL
- potentiation of the labelled compound by NMP [3]: enhancing the activity
- Effect [3, 30]: Synergistic (Synergy (FICI ≤0.5))
- FICI [3, 30]: 0.250
- MICb Alone [3, 31]: 128 µg/mL
- MICb Combined ([3]; strain EKO-35 acrB Pore, antibiotic in combination with NMP): 16 µg/mL
- FICI (EKO-35-Pore; EKO-35 Pore, NMP + antibiotic): 2.000
- FICI (EKO-35-Pore; EKO-35 Pore, PAβN + antibiotic): 1.000
- MICb Alone (EKO-35-Pore; [32]): 8 µg/mL
- MICb Combined (EKO-35-Pore; [33]): 4 µg/mL
- Effect (EKO-35-Pore; [34]): — (indifferent (FICI >1.0))
- FICI (EKO-35-Pore; [34]): 2.000
- MICb Alone (EKO-35-Pore; [35]): 8 µg/mL
- MICb Combined (EKO-35-Pore; [36]): 8 µg/mL
